Patent US20080318837A1, “Pharmaceutical Formation For Increased Epithelial Permeability of Glucose-Regulating Peptide” (priority 2003, published 2008)

Columns and labels:
[1] = intraduodenally administered to rats; cited from earlier work
ciliary motility = details: cited from earlier work
aminopeptidases = details: cited from earlier work
[2] = system: EpiAirway tracheal/bronchial epithelial cell membrane
Experimental: Triplicate samples of each formulation and controls were evaluated using the EpiAirway System in vitro model tracheal/bronchial epithelial cell membrane inserts by MatTek Corp. (Ashland, Mass.), catalog #Air-100. […] The epithelial cells are grown on porous membrane-bottomed cell culture inserts at an air-liquid interface, which results in differentiation of the cells to a highly polarized morphology. The apical surface is ciliated with a microvillous ultrastructure and the epithelium produces mucus (the presence of mucin has been confirmed by immunoblotting). The inserts have a diameter of 0.875 cm, providing a surface area of 0.6 cm^2. The cells are plated onto the inserts at the factory approximately three weeks before shipping.
EpiAirway™ culture membranes were received the day before the experiments started. They were shipped in phenol red-free and hydrocortisone-free Dulbecco's Modified Eagle's Medium (DMEM). […]
The cell viability of each tissue culture insert was tested by MTT assay. Cell viability was assessed using the MTT assay (MTT-100, MatTek kit). […] The optical density of the samples was measured at 550 nm on a μQuant optical density plate reader using KCJr software.
The MTT percentage was calculated by dividing the measured MTT value for each formulation by the MTT value of the control formulation multiplied by 100. […]

[3] = system: EpiAirway tracheal/bronchial epithelial cell membrane; experiment: Transepithelial electrical resistance (TEER/TER), EpiAirway model; type: cell-based; details: Table 6 formulations, 2 mg/mL GLP-1
Experimental: Triplicate samples of each formulation and controls were evaluated using the EpiAirway System in vitro model tracheal/bronchial epithelial cell membrane inserts by MatTek Corp. (Ashland, Mass.), catalog #Air-100.
EpiAirway™ culture membranes were received the day before the experiments started. They were shipped in phenol red-free and hydrocortisone-free Dulbecco's Modified Eagle's Medium (DMEM). Each tissue insert was placed into a well of a 6 well plate containing 0.9 ml of serum free DMEM. The membranes were then cultured for 24 hrs at 37° C./5% CO2 to allow tissues to equilibrate. […]
TEER measurements were read using a Tissue Resistance Measurement Chamber connected to an Epithelial Voltohmeter with the electrode leads, both from World Precision Instruments. First, background TEER was read for each insert on the day the experiment began. After TEER was read, 1 ml fresh media was placed in the bottom of each well in a 6-well plate. […]
The electrodes and a tissue culture blank insert were equilibrated for at least 20 min in fresh media with the power off prior to checking calibration. The background resistance was measured with 1.5 ml media in the Endohm tissue chamber and 300 μl media in a blank Millicell-CM insert. […] For each TEER determination, 300 μl media was added to the insert followed by a 20 min incubation at RT before placement in the Endohm chamber to read TEER. […]

[4] = system: EpiAirway tracheal/bronchial epithelial cell membrane; experiment: LDH cytotoxicity (cell death) assay, EpiAirway model; type: cell-based
Experimental: Fresh, cell-free media was used as a blank. 50 μl substrate solution (12 ml Assay Buffer added to a fresh bottle of Substrate Mix, made according to the kit) was added to each well and the plates were incubates for 30 min at RT in the dark.

[5] = after feeding to rats; cited from earlier work
[6] = aqueous solution, physiologic pH; cited from earlier work

Compound: 9-desglycinamide, 8-arginine vasopressin [DGAVP]
- bioavailability increase with 1% (w/v) polycarbophil vs aqueous solution [1]: 3-5 fold

Compound: 2-alkyl-4-hydroxyquinolines [pyo compound]
- concentration producing ciliostasis / inhibiting ciliary motility (ciliary motility): 50 µg/mL

Compound: CC(C)CC(N)B(O)O (stereo not shown) [boro-leucine]
- enzyme inhibition, times more effective than bestatin (aminopeptidases): more than 100 times
- enzyme inhibition, times more effective than puromycin (aminopeptidases): more than 1000 times

Compound: Octylphenolpoly(ethyleneglycolether)x [LDH Control]
- % MTT [2]: 1%
- % TEER Reduction [3]: 100%
- % LDH [4]: 100%

Compound: Phaseolus vulgaris hemagglutinin
- oral bioavailability [5]: more than 10%

Compound: CCN(CC)/[N+]([O-])=N/O.CCNCC [diethylamine/NO]
- NO release rate (time) [6]: < 3 min

Compound: NCCN(CCN)/[N+]([O-])=N/O [diethylenetriamine/NO]
- NO release rate (time) [6]: approximately 20 hours
